Among the data in patent publication US12187713B2, “Immunomodulators, compositions and methods thereof” (Betta Pharmaceuticals Co., Ltd, priority 2019, dated 2025) are IC50 values, retold here.

Sequence of PD-1/PD-L1 (Q9NZQ7 19-238): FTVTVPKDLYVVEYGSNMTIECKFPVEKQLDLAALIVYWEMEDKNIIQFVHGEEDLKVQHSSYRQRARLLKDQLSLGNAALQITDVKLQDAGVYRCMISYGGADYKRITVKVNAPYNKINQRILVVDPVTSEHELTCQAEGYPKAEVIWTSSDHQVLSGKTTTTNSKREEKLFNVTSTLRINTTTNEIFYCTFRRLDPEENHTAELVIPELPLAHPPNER

One experiment addresses PD-1/PD-L1 (Homo sapiens (Human), UniProt Q9NZQ7). Nature of the experiment: PD-1/PD-L1 Binding Assay (Alphascreen). As to conditions: numeric values. Summed up: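 PD-1/PD-L1 binding detected by anti-6×His acceptor and streptavidin donor beads after 120 min in the dark at 25 °C. Beforehand, the two proteins were incubated 15 min at 25 °C with inhibitor at 0.015–300 nM (1% DMSO). IC50 comes from a log concentration–response curve.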
In general terms: Bead proximity is the source of the signal in Alpha formats.
By IC50 is commonly meant the point on the concentration scale where inhibition reaches its midpoint. Lower therefore signals greater potency. In turn, `Cc1c(-c2cnc(CN3CCCC3)nc2)cccc1-c1cccc(-c2nc3cc(CN4CCC[C@H]4C(=O)O)c(OC(F)F)cc3o2)c1C` [Example 281, ((6-(difluoromethoxy)-2-(2,2′-dimethyl-3′-(2-(pyrrolidin-1-ylmethyl)pyrimidin-5-yl)-[1,1′-biphenyl]-3-yl)benzo[d]oxazol-5-yl)methyl)-L-proline] returned an IC50 of 1.3 nM.
Compound `Cc1c(-c2ccc3c(c2)CNC3)cccc1-c1cccc(-c2nc3cc(CN4CCC[C@H]4C(=O)O)c(OC(F)F)cc3o2)c1C` [Example 289, ((6-(difluoromethoxy)-2-(3′-(isoindolin-5-yl)-2,2′-dimethyl-[1,1′-biphenyl]-3-yl)benzo[d]oxazol-5-yl)methyl)-L-proline] registered an IC50 of 0.66 nM.
Still for that read-out and setting: with `Cc1c(-c2nc3cc(CN4CCCC4)c(F)c(F)c3[nH]2)cccc1-c1cccc(-c2nc3cc(CN4CCC[C@H]4C(=O)O)c(OC(F)F)cc3o2)c1C` [Example 296] the figure was 12 nM; with `Cc1c(-c2nc3cc(CN4CCCC4)c(F)cc3[nH]2)cccc1-c1cccc(-c2nc3cc(CN4CCC[C@H]4C(=O)O)c(OC(F)F)cc3o2)c1C` [Example 297], 26 nM.
Same read-out and setting: the same measure for `Cc1c(-c2nc3cc(CN4CCC[C@H]4C(=O)O)c(OC(F)F)cc3o2)cccc1-c1cccc(NC(=O)c2ccc(CNCCO)cn2)c1Cl` [Example 302, ((2-(2′-chloro-3′-(5-(((2-hydroxyethyl)amino)methyl)picolinamido)-2-methyl-[1,1′-biphenyl]-3-yl)-6-(difluoromethoxy)benzo[d]oxazol-5-yl)methyl)-L-proline]: 0.29 nM; for `Cc1c(NC(=O)c2cn3c(n2)CNCC3)cccc1-c1cccc(-c2nc3cc(CN4CCC[C@H]4C(=O)O)c(OC(F)F)cc3o2)c1C` [Example 303, ((6-(difluoromethoxy)-2-(2,2′-dimethyl-3′-(5,6,7,8-tetrahydroimidazo[1,2-a]pyrazine-2-carboxamido)-[1,1′-biphenyl]-3-yl)benzo[d]oxazol-5-yl)methyl)-L-proline]: 1.6 nM.
`Cc1c(-c2nc3ccc(CN4CCCC4)cn3n2)cccc1-c1cccc(-c2nc3cc(CN4CCC[C@H]4C(=O)O)c(OC(F)F)cc3o2)c1C` [Example 305, ((6-(difluoromethoxy)-2-(2,2′-dimethyl-3′-(6-(pyrrolidin-1-ylmethyl)-[1,2,4]triazolo[1,5-a]pyridin-2-yl)-[1,1′-biphenyl]-3-yl)benzo[d]oxazol-5-yl)methyl)-L-proline] returned a concentration for half-maximal inhibition (IC50) of 0.87 nM.
The same measure, in the same setting: the same measure for `Cc1c(-c2nc3cc(CN4CCC[C@H]4C(=O)O)c(OC(F)F)cc3o2)cccc1-c1cccc(N2CCC(N3CCCC3)CC2)c1C` [Example 306, ((6-(difluoromethoxy)-2-(2,2′-dimethyl-3′-(4-(pyrrolidin-1-yl)piperidin-1-yl)-[1,1′-biphenyl]-3-yl)benzo[d]oxazol-5-yl)methyl)-L-proline]: 1.5 nM.

The same experiment, now with this note: range symbols.
In the case of `COc1nc(-c2cccc(-c3cccc(-c4nc5cc(CN6CCC[C@H]6C(=O)O)c(OC(F)F)cc5o4)c3C)c2C)ccc1CN1C2CCC1CC2` [Example 278, ((2-(3′-(5-(((1s,4s)-7-azabicyclo[2.2.1]heptan-7-yl)methyl)-6-methoxypyridin-2-yl)-2,2′-dimethyl-[1,1′-biphenyl]-3-yl)-6-(difluoromethoxy)benzo[d]oxazol-5-yl)methyl)-L-proline], the IC50 is 0.1 to 5 nM.
The compound `COc1nc(-c2cccc(-c3cccc(-c4nc5cc(CN6CCC[C@H]6C(=O)O)c(OC(F)F)cc5o4)c3C)c2C)ccc1CN1CCC[C@H]1C` [Example 279, ((6-(difluoromethoxy)-2-(3′-(6-methoxy-5-(((R)-2-methylpyrrolidin-1-yl)methyl)pyridin-2-yl)-2,2′-dimethyl-[1,1′-biphenyl]-3-yl)benzo[d]oxazol-5-yl)methyl)-L-proline] returned an IC50 of 0.1 to 5 nM.
Still for that read-out and setting: the same measure for `Cc1c(-c2cnc(N3CCN(C)CC3)nc2)cccc1-c1cccc(-c2nc3cc(CN4CCC[C@H]4C(=O)O)c(OC(F)F)cc3o2)c1C` [Example 282, ((6-(difluoromethoxy)-2-(2,2′-dimethyl-3′-(2-(4-methylpiperazin-1-yl)pyrimidin-5-yl)-[1,1′-biphenyl]-3-yl)benzo[d]oxazol-5-yl)methyl)-L-proline]: 5 to 50 nM; for `Cc1c(-c2cnc(CN3CCCC3)cn2)cccc1-c1cccc(-c2nc3cc(CN4CCC[C@H]4C(=O)O)c(OC(F)F)cc3o2)c1C` [Example 284, ((6-(difluoromethoxy)-2-(2,2′-dimethyl-3′-(5-(pyrrolidin-1-ylmethyl)pyrazin-2-yl)-[1,1′-biphenyl]-3-yl)benzo[d]oxazol-5-yl)methyl)-L-proline]: 5 to 50 nM.
Consider `COc1nc(-c2cccc(-c3cccc(-c4nc5cc(CN6CCC[C@H]6C(=O)O)c(OC(F)F)cc5o4)c3C)c2Cl)cnc1CNCC1CCC(=O)N1` (stereo partly drawn) [Example 287, ((2-(2′-chloro-3′-(6-methoxy-5-((((5-oxopyrrolidin-2-yl)methyl)amino)methyl)pyrazin-2-yl)-2-methyl-[1,1′-biphenyl]-3-yl)-6-(difluoromethoxy)benzo[d]oxazol-5-yl)methyl)-L-proline], for which the IC50 fell in the range of 0.1 to 5 nM.
For the compound `Cc1c(-c2ccc3c(c2)CN(CCC(=O)O)C3)cccc1-c1cccc(-c2nc3cc(CN4CCC[C@H]4C(=O)O)c(OC(F)F)cc3o2)c1C` [Example 290, ((2-(3′-(2-(2-carboxyethyl)isoindolin-5-yl)-2,2′-dimethyl-[1,1′-biphenyl]-3-yl)-6-(difluoromethoxy)benzo[d]oxazol-5-yl)methyl)-L-proline], the IC50 fell in the range of 0.1 to 5 nM.
On the same count and under the same terms, the same measure for `Cc1c(-c2ccc3c(c2)CN(CC(=O)O)C3)cccc1-c1cccc(-c2nc3cc(CN4CCC[C@H]4C(=O)O)c(OC(F)F)cc3o2)c1C` [Example 291, ((2-(3′-(2-(carboxymethyl)isoindolin-5-yl)-2,2′-dimethyl-[1,1′-biphenyl]-3-yl)-6-(difluoromethoxy)benzo[d]oxazol-5-yl)methyl)-L-proline]: 0.1 to 5 nM; for `Cc1c(-c2ccc3c(c2)CN(C(C)C(=O)O)C3)cccc1-c1cccc(-c2nc3cc(CN4CCC[C@H]4C(=O)O)c(OC(F)F)cc3o2)c1C` (stereo partly drawn) [Example 292, ((2-(3′-(2-(1-carboxyethyl)isoindolin-5-yl)-2,2′-dimethyl-[1,1′-biphenyl]-3-yl)-6-(difluoromethoxy)benzo[d]oxazol-5-yl)methyl)-L-proline]: 5 to 50 nM; for `Cc1c(-c2nc3cc(CN4CCCC4)cc(C#N)c3[nH]2)cccc1-c1cccc(-c2nc3cc(CN4CCC[C@H]4C(=O)O)c(OC(F)F)cc3o2)c1C` [Example 295, ((2-(3′-(7-cyano-5-(pyrrolidin-1-ylmethyl)-1H-benzo[d]imidazol-2-yl)-2,2′-dimethyl-[1,1′-biphenyl]-3-yl)-6-(difluoromethoxy)benzo[d]oxazol-5-yl)methyl)-L-proline]: 5 to 50 nM.
As for `Cc1c(-c2nc3cc(CN4CCC[C@H]4C(=O)O)c(OC(F)F)cc3o2)cccc1-c1cccc(-c2nc3cc(CN4CCCC4)c(F)c(F)c3n2C)c1C` [Example 298, ((2-(3′-(6,7-difluoro-1-methyl-5-(pyrrolidin-1-ylmethyl)-1H-benzo[d]imidazol-2-yl)-2,2′-dimethyl-[1,1′-biphenyl]-3-yl)-6-(difluoromethoxy)benzo[d]oxazol-5-yl)methyl)-L-proline], the IC50 lay in the range of 5 to 50 nM.
Same read-out and setting: with `Cc1c(-c2nc3cc(CN4CCC[C@H]4C(=O)O)c(OC(F)F)cc3o2)cccc1-c1cccc(-c2nc3c(F)c(F)c(CN4CCCC4)cc3n2CC(F)(F)F)c1C` [Example 300, ((2-(3′-(4,5-difluoro-6-(pyrrolidin-1-ylmethyl)-1-(2,2,2-trifluoroethyl)-1H-benzo[d]imidazol-2-yl)-2,2′-dimethyl-[1,1′-biphenyl]-3-yl)-6-(difluoromethoxy)benzo[d]oxazol-5-yl)methyl)-L-proline] the figure was over 50 nM; with `Cc1c(-c2nc3cc(CN4CCCC4)cc(C(F)(F)F)c3[nH]2)cccc1-c1cccc(-c2nc3cc(CN4CCC[C@H]4C(=O)O)c(OC(F)F)cc3o2)c1C` [Example 301, ((6-(difluoromethoxy)-2-(2,2′-dimethyl-3′-(5-(pyrrolidin-1-ylmethyl)-7-(trifluoromethyl)-1H-benzo[d]imidazol-2-yl)-[1,1′-biphenyl]-3-yl)benzo[d]oxazol-5-yl)methyl)-L-proline], 5 to 50 nM; with `Cc1c(-c2nc3cc(CN4CCC[C@H]4C(=O)O)c(OC(F)F)cc3o2)cccc1-c1cccc(N2CCC(NCC3(CO)CC3)CC2)c1C` [Example 307, ((6-(difluoromethoxy)-2-(3′-(4-(((1-(hydroxymethyl)cyclopropyl)methyl)amino)piperidin-1-yl)-2,2′-dimethyl-[1,1′-biphenyl]-3-yl)benzo[d]oxazol-5-yl)methyl)-L-proline], 0.1 to 5 nM.
On to `Cc1c(-c2nc3cc(CN4CCC[C@H]4C(=O)O)c(OC(F)F)cc3o2)cccc1-c1cccc(N2CCC(CN3CC(C)(C)C3)CC2)c1C` [Example 308, ((6-(difluoromethoxy)-2-(3′-(4-((3,3-dimethylazetidin-1-yl)methyl)piperidin-1-yl)-2,2′-dimethyl-[1,1′-biphenyl]-3-yl)benzo[d]oxazol-5-yl)methyl)-L-proline], for which the IC50 lay within 0.1 to 5 nM.
Same read-out and setting: with `Cc1c(-c2nc3cc(CN4CCC[C@H]4C(=O)O)c(OC(F)F)cc3o2)cccc1-c1cccc(N2CCC(CN3CCCC3)CC2)c1C` [Example 309, ((6-(difluoromethoxy)-2-(2,2′-dimethyl-3′-(4-(pyrrolidin-1-ylmethyl)piperidin-1-yl)-[1,1′-biphenyl]-3-yl)benzo[d]oxazol-5-yl)methyl)-L-proline] the figure was 0.1 to 5 nM; with `Cc1c(-c2nc3cc(CN[C@@H]4CCC[C@@H]4O)ccc3o2)cccc1-c1cccc(-c2nc3cc(CN4CCC[C@@H]4C(=O)O)c(OC(F)F)cc3o2)c1C` [Example 310, ((6-(difluoromethoxy)-2-(3′-(5-((((1R,2S)-2-hydroxycyclopentyl)amino)methyl)benzo[d]oxazol-2-yl)-2,2′-dimethyl-[1,1′-biphenyl]-3-yl)benzo[d]oxazol-5-yl)methyl)-D-proline], 0.1 to 5 nM.
